Experimental data as given in PubChem BioAssay AID2305 (GlaxoSmithKline (GSK), 2010).

The compounds below were run on P. falciparum 3D7 growth, pLDH absorbance (assay: blood-stage malaria parasite growth potency – strain 3D7, dose response (AID 2305)).
For `CN(C)CC(O)C(O)(c1ccccc1)c1ccc(F)cc1` (centres undefined), the IC50 was 1150 nM. For `Oc1cccc2c1CC(NCc1ccccc1)CC2` (centres undefined), the IC50 was 890 nM. Work on `Cc1cccc2[nH]c(-c3cccc(-c4cccc(C(=O)NCc5nccn5C)c4)c3)nc12` yielded an IC50 of 530 nM. Work on `c1cc(-c2ccc(CNCCCN3CCOCC3)cc2)cc(-c2nc3ccccc3[nH]2)c1` yielded an IC50 of 210 nM. In the case of `CC(=O)Nc1ccc(OCCCCN(Cc2ccccc2C(F)(F)F)c2ccc(C(F)(F)F)c(C#N)c2)c(Cl)c1`, the IC50 is reported as 550 nM. `CCc1cn2c3c(cc(C(=O)N[C@@H](Cc4ccccc4)[C@H](O)CNC4CCCCC4)cc13)N(C)S(=O)(=O)C2` was tested, and the IC50 was 90 nM. `Cc1cc(OC(C)C(=O)N2CCc3ccccc32)ccc1Cl` (centres undefined) gave an IC50 of 790 nM. With `CCc1c(CCNCCCCCCNCCc2ccc(Br)cc2)ccc(O)c1O` the IC50 was 900 nM. With `CN1CCN(c2cccc(Nc3nccc(NCC(O)c4ccccc4)n3)c2)CC1` (centres undefined) the IC50 was 720 nM. For `Clc1ccccc1CCNCC1CCN(CC2CCCCC2)CC1`, the IC50 was 690 nM. Work on `C[C@H](Cc1ccc(OCCCCCCCOc2ccc(C[C@@H](C)NC[C@H](O)c3cccc(Cl)c3)cc2)cc1)NC[C@H](O)c1cccc(Cl)c1` yielded an IC50 of 190 nM. With `COc1ccc2c(c1C1CCN(CCCCNC(=O)c3ccc(-c4ccc(Cl)cn4)cc3)CC1)CCCC2` the IC50 was 1020 nM. For `Nc1cccc(CNCc2ccc(-c3cccc(-c4nc5ccccc5[nH]4)c3)cc2)c1`, the IC50 was 710 nM. With `CC(NCC(O)Cn1c2ccccc2c2ccccc21)c1ccccc1` (centres undefined) the IC50 was 930 nM. With `Cc1ccc(-n2nc(C)c3c2NC(=O)CSC3c2ccsc2)cc1` (centres undefined) the IC50 was 1010 nM. With `CC(C)(C)c1ccc(NC(=O)c2cccc(CN3CCCN(Cc4ccc(F)cc4)CC3)c2)cc1` the IC50 was 990 nM. With `O=C(CSc1ccccn1)Nc1c(F)cccc1F` the IC50 was 1210 nM. `CC1CCN(CCCNc2ccc(C(=O)Nc3ccc(C(F)(F)F)cc3)cc2[N+](=O)[O-])CC1` gave an IC50 of 340 nM. With `CCCCCCc1cnc2nc(N)nc(N)c2c1C` the IC50 was 190 nM. `O=C(NCC1CCN(Cc2ccc(F)cc2)C1)c1cc(-c2cccc(C(F)(F)F)c2)cs1` (centres undefined) was tested, and the IC50 was 960 nM. `COc1cc(CCNc2nc(NCc3ccccc3-c3ccccc3)nc(N3CCC(N)CC3)n2)ccc1O` was tested, and the IC50 was 820 nM. `Cc1ccc(O)cc1Nc1ccnc2ccc(-c3csc(CNCCN4CCOCC4)n3)cc12` was tested, and the IC50 was 150 nM. For `COc1ccc2nccc([C@@H](O)CN3CCC(NCCOc4ccc(F)cc4[N+](=O)[O-])CC3)c2c1`, the IC50 was 120 nM. `COC(=O)c1cccc(CNCc2ccc(-c3cccc(-c4nc5ccc(C(F)(F)F)cc5[nH]4)c3)cc2)c1` gave an IC50 of 160 nM. `COc1cc(OC)c2c(C)cc(NCCCn3ccnc3)nc2c1` was tested, and the IC50 was 800 nM. `CCN(CC)CCCNCc1ccc(-c2ccc(C(F)(F)F)cc2)cc1` showed an IC50 of 990 nM. `COc1cc(Nc2nc(N)n(C(=O)c3ccc4c(c3)OCO4)n2)cc(OC)c1OC` gave an IC50 of 1130 nM. Compound `COC(=O)[C@@H](NC(=O)[C@@H](Nc1ccc(C#N)c2ccccc12)C(C)(C)C)c1ccc(O)cc1` has an IC50 of 780 nM. Compound `O=C(Cn1c(CCc2cccc(F)c2F)nc(=O)c2ccccc21)N(Cc1ccc(-c2ccc(C(F)(F)F)cc2)cc1)C1CCN(C2CCSCC2)CC1` has an IC50 of 860 nM. Compound `COc1ccc2ncc(OC)c(CCN3CC[C@@H](NCc4ccc5c(n4)NC(=O)CS5)[C@H](O)C3)c2n1` has an IC50 of 830 nM. Work on `CC(C)Cc1c(O)nc(SCCN2CCOCC2)[nH]c1=O` yielded an IC50 of 1260 nM. `CCn1cc(CN2CCCC(C(=O)Nc3ccc(-c4nc5ccccc5[nH]4)cc3)C2)c(C)n1` (centres undefined) gave an IC50 of 800 nM. `COc1ccccc1-n1c(SCC(=O)c2ccc3c(c2)CC(=O)N3C)nnc1-c1cccs1` gave an IC50 of 960 nM. In the case of `Fc1cccc(Nc2nc(NCCc3ccc(Cl)cc3)nc(Nc3cccc(F)c3)n2)c1`, the IC50 is reported as 1070 nM. With `Cc1[nH]c(C)c(-c2ccc(OCc3cc(C(F)(F)F)cc(C(F)(F)F)c3)nc2)c(=O)c1Cl` the IC50 was 110 nM. `Cn1nccc1C(=O)NCCNCc1ccc(-c2cccc(-c3nc4ccccc4[nH]3)c2)cc1` gave an IC50 of 140 nM. `O=C(NCCN1CCCC1)N1CCCN(c2ncnc3cc(-c4ccc(F)cc4)sc23)CC1` showed an IC50 of 900 nM. Compound `c1cc2nc(CCc3nc4ccc(C5=N[C@H]6CCCC[C@H]6N5)cc4[nH]3)[nH]c2cc1C1=N[C@@H]2CCCC[C@@H]2N1` has an IC50 of 230 nM. With `Clc1ccc2c(NN=Cc3cccnc3)ccnc2c1` the IC50 was 700 nM. In the case of `COc1cc(C)nc2ccc(NC(=O)c3cc([N+](=O)[O-])cc([N+](=O)[O-])c3)cc12`, the IC50 is reported as 390 nM. `Oc1cccc(C2CCCN(Cc3cccc4cc[nH]c34)C2)c1` (centres undefined) gave an IC50 of 510 nM. `CC1CCc2sc(-c3nnc(SC(C)C(=O)NC4CC4)o3)cc2C1` (centres undefined) was tested, and the IC50 was 1210 nM. For `O=C(c1ccccc1)N1CCC(CN2CCOC(c3ccccc3)(c3ccccc3)C2)CC1`, the IC50 was 500 nM. `COc1ccc(CNC2CCN(C)CC2)cc1-c1ccc(S(=O)(=O)NC2CCC2)cc1` showed an IC50 of 880 nM. `CC(Cc1ccc(NC(=O)c2ccc(CC(C)NCc3ccc(Cl)c(Cl)c3)cc2)cc1)NCCc1cccc(Cl)c1` (centres undefined) gave an IC50 of 1000 nM. Compound `Cc1nc(C)c(-c2ccc(Oc3ccc(OC(F)(F)F)cc3)cc2)c(OC(=O)c2ccc(CN(C)C)cc2)c1Cl` has an IC50 of 140 nM. For `O=C(NCCCCN1CCC(O)(c2ccc3c(c2)OCO3)CC1)c1ccc(NC(=O)c2ccc(Cl)cc2)cc1`, the IC50 was 1180 nM. `CC(C)N1CCN(C(CN2CCN(CCCOc3ccc4nonc4c3)CC2)c2ccc(F)cc2)CC1` (centres undefined) showed an IC50 of 800 nM. In the case of `Cc1cc(=O)c(-c2ccc(Oc3cccc(Cl)c3)cc2)c(C)[nH]1`, the IC50 is reported as 600 nM.
